Reference: patent publication US20080227643A1, “Use of adjuvants to improve abscisic acid analog and abscisic acid derivative performance” (priority 2007, published 2008)
Several values for one entry are separate records, joined by “and”; a condition that tells them apart may be missing. Equal values may be shown once.

Test system: tomato leaf transpiration
Experiment: tomato leaf transpiration inhibition bioassay (foliar application, porometer)
Type: in vivo, Tomato (variety: Rutgers)
Details: 25 ppm ABA analog foliar applied; for Transpiration rate (% of control): 20 mL/6 plants
Experimental: ABA analog effectiveness may be measured experimentally by quantifying the inhibition of transpiration in tomato leaves; this is a reliable laboratory bioassay of the level of ABA activity.
All the research studies were conducted in the greenhouse at the research farm of Valent BioSciences Corporation (Long Grove, Ill.). Tomato (variety: Rutgers) seeds were sown in 18-cell flats filled with Promix PGX (available from Premier Horticulture Inc. Quakertown, Pa.) three weeks for germination and initial growth. Plants were then transplanted into pots (18 cm in diameter and 18 cm in height) filled with Promix BX (available from Premier Horticulture Inc. Quakertown, Pa.) and grown for one or two more weeks before treatment, depending on greenhouse temperature. During growing periods, plants received daily irrigation and weekly fertilizer (1 g/L all purpose fertilizer 20-20-20, The Scotts Company, Marysville, Ohio).
Chemical solutions were prepared with distilled water. ABA analogs, 8′ acetylene-ABA, acid (PBI-524) and 8′ acetylene-ABA methyl ester (PBI-429) were available from Plant Biotechnology Institute, National Research Council of Canada (Saskatoon, Saskatchewan, Canada). 25 ppm PBI-429 or 25 ppm PBI-524 was prepared by dissolving 25 mg chemical in 1 L distilled water.
Tween 20 and Brij 98 were available from Uniqema (New Castle, Del.). Silwet L-77 was available from GE Silicones (Wilton, Conn.). Agral 90 was available from Norac Concept. Inc. (Orleans, Ontario, Canada). Kinetic was available from Setre Chemical Company (Memphis, Tenn.). Capsil was available from Aquatrols (Paulsboro, N.J.). Urea and ammonium nitrate (NH4NO3) were available from Sigma-Aldrich (St. Louis, Mo.). Ethyl lactate was available from Fluka Chemie (GmbH, Buchs, Germany). Surfactant was added to 250-ppm ABA or 25-ppm ABA analogs at the concentration of 0.05% or 0.5% (v/v). Since Brij 98 was a waxy substance and difficult to dissolve in water, a stock solution of 25% Brij 98 was prepared by dissolving 25 g Brij 98 in 75 g ethyl lactate and this solution was easily dissolve in water.
Chemical solutions were foliar applied to tomato plant leaves at the rate of 20 mL/6 plants. Plants were then placed in a transparent chamber with humidity controlled at relative humidity 40 to 60%. […] The transpiration rate of each treatment was calculated as the percentage of that of control at each day to reduce day-to-day variation caused by changes of environmental condition such as light intensity and temperature.
All experiments were randomized complete block experimental design. Data were analyzed by analysis of variance. Duncan's new multiple range tests at α=0.05 were used for mean separations.

[1] = average over 7 days (days 1, 2, 3, 4, 7)

| SMILES | Transpiration rate (% of control) (1 day after treatment) | Transpiration rate (% of control) (2 days after treatment) | Transpiration rate (% of control) (3 days after treatment) | Transpiration rate (% of control) (4 days after treatment) | Transpiration rate (% of control) (7 days after treatment) | Transpiration rate (% of control), Average (average of days 1, 2, 3 (Table 11)) | Transpiration rate (% of control), Average [1] |
| --- | --- | --- | --- | --- | --- | --- | --- |
| C#CC1(C)CC(=O)C=C(C)C1(O)/C=C/C(C)=C\C(=O)OC (stereo not shown) [PBI-429, 8′ acetylene-ABA methyl ester] | 102 % of control and 81 % of control and 77 % of control | 87 % of control and 64 % of control and 60 % of control | 86 % of control and 69 % of control and 71 % of control | 77.52 % of control and 78 % of control and 81 % of control and 77 % of control | 95 % of control and 73 % of control | 70 % of control | 74 % of control |
| C#CC1(C)CC(=O)C=C(C)C1(O)C=CC(C)=CC(=O)O (stereo not shown) [PBI-524, 8′ acetylene-ABA, acid] | 95 % of control and 81 % of control | 87 % of control and 63 % of control | 93 % of control and 69 % of control | 92 % of control and 79 % of control | 101 % of control and 91 % of control |  | 77 % of control |
